A short description of series [1]: Solubility in buffers with different pHs and in water (Example 19). The class given is physicochemical. As to conditions: for solubility at 30 min: 37 °C, thermodynamic from solid. How it is done:
The solubility results were all calculated based on the free form. The buffers with different pHs were prepared according to the United States Pharmacopeia (USP40-NF35).

Another series relates to FGFR. As to conditions: cited from earlier work.

Each structure is given as a SMILES string. In brackets after ≈: the same amount, converted by molar mass.

For orientation: solubility means how much of the substance goes into solution per volume. For orientation: Solubility means the dissolved amount per volume that the medium holds. With `CNC(=O)c1cc(CCc2cnc(Nc3ccc(N4C[C@@H](C)N[C@@H](C)C4)cc3)nc2)c(Cl)c(OC)c1` [Compound 78, 4-chloro-3-(2-(2-((4-((3S,5R)-3,5-dimethylpiperazin-1-yl)phenyl)amino)pyrimidin-5-yl)ethyl)-5-methoxy-N-methylbenzamide], the “Solubility (in words)” value in series [1] (all test media) is on record as “greatly different solubility in different media”. In addition, the solubility at 30 min in series [1] (pH 1.2 buffer (USP), pH 1.2, simulated gastric fluid, pH 1.2 buffer, 30 minutes, calculated based on the free form) is 721 µg/mL (≈ 1420 µM); in series [1] (pH 2.1 buffer (USP), pH 2.1, aqueous buffer, pH 2.1 buffer, 30 minutes, calculated based on the free form), 174 µg/mL (≈ 342 µM); in series [1] (pH 4.5 buffer (USP), pH 4.5, aqueous buffer, pH 4.5 buffer, 30 minutes, calculated based on the free form) it was at most 12600 µg/mL; in series [1] (pH 6.8 buffer (USP), pH 6.8, aqueous buffer, pH 6.8 buffer, 30 minutes, calculated based on the free form), 67.5 µg/mL (≈ 133 µM); in series [1] (purified water, water, 30 minutes, calculated based on the free form), 2.3 µg/mL (≈ 4.52 µM). Moreover, in series [1] (pH 4.5 buffer, 37° C., 30 minutes, calculated based on the free form), the Solubility was 12.5888 mg/mL (≈ 24700 µM). The “Inhibition of FGFR activity” value in the series with FGFR was “can effectively inhibit FGFR activity”.

The values are drawn from patent US12559472B2, “Salts of a compound and the crystalline forms thereof” (HUTCHISON MEDIPHARMA LIMITED, priority 2019, dated 2026).
